According to patent publication US6395769B1, “2-arylbenzo[b]thiophenes useful for the treatment of estrogen deprivation syndrome” (Eli Lilly and Company, priority 1997, dated 2002):

What was measured:
[1] = test system: bone mineral density; assay: Osteoporosis model in ovariectomized rats, bone mineral density; assay type: in vivo, Sprague Dawley rats; details: OVX rats treated orally daily for 35 days, in 20% hydroxypropyl β-cyclodextrin; femur x-ray image analysis and tibia quantitative computed tomography
Excerpt: Seventy-five day old female Sprague Dawley rats (weight range of 200 g to 225 g) are obtained from Charles River Laboratories (Portage, Mich.). The animals are either bilaterally ovariectomized (OVX) or exposed to a Sham surgical procedure at Charles River Laboratories, and then shipped after one week. Upon arrival, they are housed in metal hanging cages in groups of 3 or 4 per cage and have ad libitum access to food (calcium content approximately 0.5%) and water for one week. Room temperature is maintained at 22.2°±1.70° C. with a minimum relative humidity of 40%. The photoperiod in the room is 12 hours light and 12 hours dark.
Following the General Procedure, infra, the rats are treated daily for 35 days (6 rats per treatment group) and sacrificed by carbon dioxide asphyxiation on the 36th day. The 35 day time period is sufficient to allow maximal reduction in bone density, measured as described herein. At the time of sacrifice, the uteri are removed, dissected free of extraneous tissue, and the fluid contents are expelled before determination of wet weight in order to confirm estrogen deficiency associated with complete ovariectomy. […]
The right femurs are excised and digitilized x-rays generated and analyzed by an image analysis program (NIH image) at the distal metaphysis. The proximal aspect of the tibiae from these animals are also scanned by quantitative computed tomography.

melting point [°C] | Structure (SMILES) | loss of bone mineral density [1]
193 to 194 | COc1ccc(-c2cc3ccc(OC)cc3s2)cc1 [Example 1, 2-(4-Methoxyphenyl)-6-Methoxybenzo[b]thiophene] | 
 | C#C[C@]1(O)CC[C@H]2[C@@H]3CCc4cc(O)ccc4[C@H]3CC[C@@]21C [ethynyl estradiol, 17-α-ethynyl estradiol] | a reduction in the loss of bone mineral density
